# Patent US7662810B2, “2-arylmethylazetidine carbapenem derivatives and preparation thereof” (Korea Research Institute of Chemical Technology, priority 2004, dated 2010)
# How the values were obtained:
# [1] = molecular target: T1, Dihydropeptidase-1 (DHP-1) (Sus scrofa, UniProt P22412)
# T1 sequence (P22412 17-384): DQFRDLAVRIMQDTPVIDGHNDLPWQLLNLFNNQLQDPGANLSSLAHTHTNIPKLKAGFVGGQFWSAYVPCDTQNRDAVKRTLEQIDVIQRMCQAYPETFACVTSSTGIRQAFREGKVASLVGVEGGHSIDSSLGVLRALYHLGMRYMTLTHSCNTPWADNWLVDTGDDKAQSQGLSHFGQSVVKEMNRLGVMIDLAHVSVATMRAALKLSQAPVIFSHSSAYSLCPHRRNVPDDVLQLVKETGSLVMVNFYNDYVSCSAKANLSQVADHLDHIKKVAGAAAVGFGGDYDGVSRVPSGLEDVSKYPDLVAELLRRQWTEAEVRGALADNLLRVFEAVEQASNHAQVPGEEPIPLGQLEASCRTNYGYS
# [2] = Test of Pharmacokinetics in Animals (mice); assay type: in vivo; conditions: mouse, 40 mg/kg
# Experimental: The pharmacokinetics of the carbapenem derivatives of the present invention was determined using mice. […] Standard antibiotic samples were prepared by serial two-fold dilution with control blood. […] PK (pharmacokinetic) change indicators (AUC, Tmax, Cmax and T1/2) of the test compound concentration remaining in the mouse blood over time were assayed over a set period.
# [3] = Test of Pharmacokinetics in Animals (rats); assay type: in vivo; conditions: rat, 20 mg/kg
# Experimental: The pharmacokinetics of the carbapenem derivatives of the present invention was determined using mice. Each of the compounds of Examples 13 and 14 and meropenem (a positive control) was dissolved in distilled water, and mice were orally administered (PO) or subcutaneously injected (SC) at a dosage of 40 mg/kg body weight (I.C.R mice, weighing 22 to 25 g, 4 mice/group). Blood samples were withdrawn from mice tails using heparinated capillaries at 10 min., 20 min., 30 min., 45 min., 1 hour, 2 hours, 3 hours and 4 hours after the administration.
# Standard antibiotic samples were prepared by serial two-fold dilution with control blood. Agar plates were prepared with Müller-Hinton agar medium containing 6.7% sheep blood and 1% Streptococcus pyogenes 77A culture solution, and the diluted standard and blood samples were added to wells formed on the plates. The plate was stored at 4° C. for 1 hour to allow the sample to spread, and incubated at 37° C. for 18 hours. PK (pharmacokinetic) change indicators (AUC, Tmax, Cmax and T1/2) of the test compound concentration remaining in the mouse blood over time were assayed over a set period.
# Then, pharmacokinetical assay (amount of medicament administered was 20 mg/kg) was carried out as above using rats.
# Acute Toxicity Test = assay: Acute Toxicity Test
# Experimental: The acute toxicity of the compound of Example 14 was tested using several groups of ICR mice each of 10 mice.
# [4] = molecular target: T1, Dihydropeptidase-1 (DHP-1); assay: Sensitivity Assay Against Dihydropeptidase-1 (DHP-1); conditions: pig, DHP-1 enzyme extracted from hog kidney
smiles,measurement,setting,value
"COc1ccc(CN2CC(SC3=C(C(=O)[O-])N4C(=O)[C@H]([C@@H](C)O)[C@H]4[C@H]3C)C2)cc1.[K+] [Exam. 14, Potassium(1R,5S,6S)-2-[1-(4-methoxybenzyl)-azetidine-3-yl-thio]-6-[(1R)-1-hydroxylethyl]-1-methylcarbapen-2-em-3-carboxylate]",T1/2 (time when the concentration of the medicament become the half),[1],19.88
same,"AUC, times higher than meropenem",[2]; in vivo,10 to 12 times
same,increase in T1/2 than meropenem,[2]; in vivo,more than 2 times
same,AUC (area under blood-medicament concentration curve till 24 hours from administration),"[2]; in vivo, po",5.20 µg·h/mL
same,Cmax,"[2]; in vivo, po",2.07 µg/mL
same,T1/2 (half time of blood-medicament concentration),"[2]; in vivo, po",2.06 h
same,Tmax,"[2]; in vivo, po",26.4 min
same,absorption through the oral route,"[2]; in vivo, po",absorbed through the oral route to significant extents
same,AUC (area under blood-medicament concentration curve till 24 hours from administration),"[2]; in vivo, sc",79.66 µg·h/mL
same,Cmax,"[2]; in vivo, sc",69.61 µg/mL
same,T1/2 (half time of blood-medicament concentration),"[2]; in vivo, sc",0.76 h
same,Tmax,"[2]; in vivo, sc",15 min
same,"AUC, times higher than meropenem",[3]; in vivo,17 times
same,increase in T1/2 than meropenem,[3]; in vivo,more than 2 times
same,AUC (area under blood-medicament concentration curve till 24 hours after administration),"[3]; in vivo, po",0.33 µg·h/mL
same,Cmax,"[3]; in vivo, po",0.20 µg/mL
same,T1/2 (half time of blood-medicament concentration),"[3]; in vivo, po",5.07 h
same,Tmax,"[3]; in vivo, po",42.6 min
same,absorption through the oral route,"[3]; in vivo, po",absorbed through the oral route to a significant extent
same,AUC (area under blood-medicament concentration curve till 24 hours after administration),"[3]; in vivo, sc",34.58 µg·h/mL
same,Cmax,"[3]; in vivo, sc",35.85 µg/mL
same,T1/2 (half time of blood-medicament concentration),"[3]; in vivo, sc",0.69 h
same,Tmax,"[3]; in vivo, sc",22.2 min
same,death,"Acute Toxicity Test; ICR mice, 500, 1,000 and 2,000 mg/kg intraperitoneally, 7 days",no mice died
same,LD50,"Acute Toxicity Test; ICR mice, intraperitoneally injected, observed for 7 days","higher than 2,000 mg/kg"
"C[C@@H](O)[C@H]1C(=O)N2C(C(=O)O)=C(S[C@@H]3CN[C@H](C(=O)N(C)C)C3)[C@H](C)[C@H]12 [Meropenem, reference compound]",AUC,"[2]; ICR, whole blood, mice, SC, read-out: AUC (area under blood-medicament concentration curve till 24 hours from administration)",7500 ng·h/mL
same,Cmax,"[2]; ICR, whole blood, mice, SC, read-out: Cmax",13.4 µg/mL
same,half-life,"[2]; ICR, whole blood, mice, SC, read-out: T1/2 (half time of blood-medicament concentration) (converted)",25.8 min
same,Tmax,"[2]; ICR, whole blood, mice, SC, read-out: Tmax",19.8 min
same,AUC,"[3]; whole blood, rats, SC, read-out: AUC (area under blood-medicament concentration curve till 24 hours after administration)",2050 ng·h/mL
same,Cmax,"[3]; whole blood, rats, SC, read-out: Cmax",3.92 µg/mL
same,half-life,"[3]; whole blood, rats, SC, read-out: T1/2 (half time of blood-medicament concentration) (converted)",18.6 min
same,Tmax,"[3]; whole blood, rats, SC, read-out: Tmax",15 min
same,half-life at 500 μg/ml,[4],1100 min
